Test results reported in article PMC6112376, “Comprehensive Analyses and Prioritization of Tox21 10K Chemicals Affecting Mitochondrial Function by in-Depth Mechanistic Studies” (Environmental Health Perspectives, 2018).
Read-outs that look alike come from different tables or passages of the source.

Tests used:
[1] = test system: Caenorhabditis elegans strain PE255; assay: In vivo C. elegans ATP status assay
[2] = test system: HepG2 cells; assay: ROS-Glo hydrogen peroxide (ROS) assay; type: cell-based, human; conditions: 2 h treatment; mean±SD of three experiments
[3] = test system: HepG2 cells; conditions: cited from earlier work
[4] = test system: rat primary hepatocytes; assay: MMP assay in rat primary hepatocytes; conditions: for IC50: Rattus norvegicus, Hepatocyte
[5] = test system: HeLa cells expressing YFP-Parkin; assay: Parkin translocation assay; type: cell-based, human; conditions: HeLa cells stably expressing YFP-Parkin; treated for 2 h
[6] = test system: HepG2 cells; assay: Intracellular ATP content (cell viability) assay; type: cell-based, human; conditions: 40 h treatment, mean±SD of three experiments
[7] = test system: Nrf2/ARE (ARE-bla HepG2 cells); assay: ARE β-lactamase reporter gene assay; type: cell-based, human; conditions: Homo sapiens, HepG2; 16 h incubation; mean±SD of three experiments; read-out: ARE (HepG2) EC50
[8] = test system: hNSC; assay: MMP assay in human neural stem cells (hNSC); type: cell-based; conditions: Homo sapiens, Neural stem cell; 1 h treatment; fresh re-sourced stocks; mean±SD of three experiments; read-out: hNSC IC50 (MMP)
[9] = test system: Caenorhabditis elegans (Bristol N2); assay: C. elegans larval development and growth assay
[10] = test system: p53 (p53-bla HCT-116 cells); assay: p53 β-lactamase reporter gene assay; type: cell-based, human; conditions: 16 h incubation; mean±SD of three experiments
[11] = test system: HepG2 cells; conditions: 10 mM galactose, no glucose; 1 h treatment; mean±SD of three experiments
[12] = test system: HepG2 cells; assay: cells; conditions: Homo sapiens
[13] = test system: isolated rat liver mitochondria; assay: Oxygen consumption, Clark-type oxygen electrode; type: biochemical; conditions: for I-ADP, % of control (O2 consumption rate): glutamate/malate driven state 3 respiration; for I-ADP, % of control (O2 consumption rate) / I-sub, % of control (O2 consumption rate) / II-ADP, % of control (O2 consumption rate) / II-sub, % of control (O2 consumption rate): isolated rat liver mitochondria; for I-sub, % of control (O2 consumption rate): glutamate/malate driven state 4 respiration; for II-ADP, % of control (O2 consumption rate): succinate-driven state 3 respiration; for II-sub, % of control (O2 consumption rate): succinate-driven state 4 respiration

O=C(O)c1cc(O)c2c(c1)C(=O)c1cccc(O)c1C2=O [Rhein]
LUM: mean difference in luminescence (ATP content) relative to plate controls ([1]; 0.05 µM): -0.02422
LUM: mean difference in luminescence (ATP content) relative to plate controls ([1]; 0.1 µM): 0.007311
LUM: mean difference in luminescence (ATP content) relative to plate controls ([1]; 0.5 µM): 0.006998
LUM: mean difference in luminescence (ATP content) relative to plate controls ([1]; 1 µM): 0.1053
LUM: mean difference in luminescence (ATP content) relative to plate controls ([1]; 5 µM): 0.1063
LUM: mean difference in luminescence (ATP content) relative to plate controls ([1]; 10 µM): 0.1127
LUM: mean difference in luminescence (ATP content) relative to plate controls ([1]; 25 µM): 0.2215
LUM: mean difference in luminescence (ATP content) relative to plate controls ([1]; 50 µM): 0.2804
LUM: mean difference in luminescence (ATP content) relative to plate controls ([1]; 75 µM): 0.1816
LUM: mean difference in luminescence (ATP content) relative to plate controls ([1]; 100 µM): 0.2365
ROS (HepG2) EC50 [2]: Inactive
MMP assays efficacy (%) qHTS-HepG2 [3]: -100±22%
IC50 ([3]; read-out: MMP assays IC50 (µM), qHTS-HepG2): 6.06 ± 5.91 µM
Rat hepatocytes (efficacy) (MMP) ([4]; % of positive control, mean±SD of three experiments): −37.5±6.05%
IC50 ([4]; 1 h, read-out: Rat hepatocytes IC50 (MMP)): 6.76 ± 4.03 µM
IC50 ([4]; read-out: MMP assays IC50 (µM) Rat Hepatocytes): 11.6 ± 4.85 µM
MMP assays efficacy (%) Rat Hepatocytes ([4]; rat hepatocytes, mean ± SD of three experiments): -80±28%
Parkin recruitment [5]: Inactive
ATP (HepG2, glucose) IC50 ([6]; 5 mM glucose): Inactive
ATP (HepG2, galactose) IC50 ([6]; 10 mM galactose): Inactive
EC50 [7]: 15.4 ± 8.38 µM
IC50 [8]: 10.3 ± 3.4 µM
EXT: mean difference in nematode size relative to plate controls ([9]; 0.5 µM): 0.02304
EXT: mean difference in nematode size relative to plate controls ([9]; 1 µM): 0.01629
EXT: mean difference in nematode size relative to plate controls ([9]; 5 µM): 0.06956
EXT: mean difference in nematode size relative to plate controls ([9]; 10 µM): -0.06339
EXT: mean difference in nematode size relative to plate controls ([9]; 25 µM): -0.09625
EXT: mean difference in nematode size relative to plate controls ([9]; 50 µM): 0.296
EXT: mean difference in nematode size relative to plate controls ([9]; 75 µM): 0.2342
EXT: mean difference in nematode size relative to plate controls ([9]; 100 µM): 0.2496
p53 (HCT-116) EC50 [10]: Inactive
HepG2 IC50 Galactose (MMP) [11]: Inactive
IC50 ([12]; HepG2, 1 h, read-out: HepG2 IC50 Glucose (MMP)): 15.2 ± 1.76 µM
IC50 ([12]; HepG2, read-out: MMP assays IC50 (µM) HepG2): 8.91 µM
Emax ([12]; HepG2, read-out: MMP assays efficacy (%) HepG2): 86%
I-ADP, % of control (O2 consumption rate) ([13]; 4 µM): 90 (49.1) % of control
I-sub, % of control (O2 consumption rate) ([13]; 4 µM): 105 (13.7) % of control
II-ADP, % of control (O2 consumption rate) ([13]; 4 µM): 89 (78.7) % of control
II-sub, % of control (O2 consumption rate) ([13]; 4 µM): 103 (25.4) % of control
I-ADP, % of control (O2 consumption rate) ([13]; 20 µM): 87 (47.4) % of control
I-sub, % of control (O2 consumption rate) ([13]; 20 µM): 127 (16.6) % of control
II-ADP, % of control (O2 consumption rate) ([13]; 20 µM): 87 (76.7) % of control
II-sub, % of control (O2 consumption rate) ([13]; 20 µM): 128 (31.4) % of control
Potential Mechanism ([13]; mitochondrial respiration in isolated rat liver mitochondria, Clark type oxygen electrode, over tested concentrations): Uncoupler
